Earlier results on 2 compounds are cited in patent publication US20230117831A1, “MULTI-FUNCTIONAL CHIMERIC MOLECULES” (THE BROAD INSTITUTE, INC., priority 2020, published 2023).

The term Kd denotes a measure of binding affinity in units of concentration.

Targets include PKC beta (Homo sapiens, UniProt P05771); PKC gamma (Homo sapiens, UniProt P05129); PKC delta (Homo sapiens, UniProt Q05655); VEGFR (Homo sapiens, UniProt P35968).
Holding throughout (conditions): cited from earlier work
The target of series [1] is T1, PKCalpha (Homo sapiens, UniProt P17252).
The next series concerns the target T2, PKC epsilon (Homo sapiens, UniProt Q02156).
T2 sequence (Q02156 1-737): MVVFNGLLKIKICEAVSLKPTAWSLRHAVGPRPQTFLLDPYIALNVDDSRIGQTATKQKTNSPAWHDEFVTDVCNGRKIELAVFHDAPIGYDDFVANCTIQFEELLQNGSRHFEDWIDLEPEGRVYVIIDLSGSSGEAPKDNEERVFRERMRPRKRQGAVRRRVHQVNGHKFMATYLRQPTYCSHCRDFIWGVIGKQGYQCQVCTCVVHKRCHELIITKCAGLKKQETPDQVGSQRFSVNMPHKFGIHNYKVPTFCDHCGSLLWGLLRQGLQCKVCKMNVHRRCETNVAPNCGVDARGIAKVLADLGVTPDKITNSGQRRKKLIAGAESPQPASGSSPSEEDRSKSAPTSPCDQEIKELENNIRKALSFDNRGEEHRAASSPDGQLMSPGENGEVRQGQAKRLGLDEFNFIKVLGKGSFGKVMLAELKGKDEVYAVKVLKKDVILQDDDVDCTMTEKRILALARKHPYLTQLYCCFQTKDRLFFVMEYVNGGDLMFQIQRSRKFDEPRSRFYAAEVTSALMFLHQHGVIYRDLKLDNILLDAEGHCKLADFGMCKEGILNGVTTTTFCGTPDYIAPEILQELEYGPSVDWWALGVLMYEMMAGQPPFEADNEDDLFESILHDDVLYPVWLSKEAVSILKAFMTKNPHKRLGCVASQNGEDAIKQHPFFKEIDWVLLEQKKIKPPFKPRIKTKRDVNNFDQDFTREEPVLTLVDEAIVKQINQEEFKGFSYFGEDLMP

Series [2] concerns breast carcinoma cell lines MCF-7 and MDA-MB-231.
Series [3] deals with T1, PKCalpha. The source holds these as a separate data set.

VEGFR, sequence (P35968 806-1171 limits assumed): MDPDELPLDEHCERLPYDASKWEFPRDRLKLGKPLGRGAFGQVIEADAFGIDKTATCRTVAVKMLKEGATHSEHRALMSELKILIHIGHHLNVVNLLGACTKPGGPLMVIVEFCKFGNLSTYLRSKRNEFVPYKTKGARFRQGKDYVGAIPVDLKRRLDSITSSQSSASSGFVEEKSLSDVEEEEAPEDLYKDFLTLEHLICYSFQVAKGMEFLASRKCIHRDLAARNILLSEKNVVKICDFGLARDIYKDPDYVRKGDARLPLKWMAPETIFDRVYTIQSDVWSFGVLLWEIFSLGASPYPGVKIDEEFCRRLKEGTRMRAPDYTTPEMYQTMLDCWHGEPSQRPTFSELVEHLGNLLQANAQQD
PKC delta, sequence (Q05655 whole entry): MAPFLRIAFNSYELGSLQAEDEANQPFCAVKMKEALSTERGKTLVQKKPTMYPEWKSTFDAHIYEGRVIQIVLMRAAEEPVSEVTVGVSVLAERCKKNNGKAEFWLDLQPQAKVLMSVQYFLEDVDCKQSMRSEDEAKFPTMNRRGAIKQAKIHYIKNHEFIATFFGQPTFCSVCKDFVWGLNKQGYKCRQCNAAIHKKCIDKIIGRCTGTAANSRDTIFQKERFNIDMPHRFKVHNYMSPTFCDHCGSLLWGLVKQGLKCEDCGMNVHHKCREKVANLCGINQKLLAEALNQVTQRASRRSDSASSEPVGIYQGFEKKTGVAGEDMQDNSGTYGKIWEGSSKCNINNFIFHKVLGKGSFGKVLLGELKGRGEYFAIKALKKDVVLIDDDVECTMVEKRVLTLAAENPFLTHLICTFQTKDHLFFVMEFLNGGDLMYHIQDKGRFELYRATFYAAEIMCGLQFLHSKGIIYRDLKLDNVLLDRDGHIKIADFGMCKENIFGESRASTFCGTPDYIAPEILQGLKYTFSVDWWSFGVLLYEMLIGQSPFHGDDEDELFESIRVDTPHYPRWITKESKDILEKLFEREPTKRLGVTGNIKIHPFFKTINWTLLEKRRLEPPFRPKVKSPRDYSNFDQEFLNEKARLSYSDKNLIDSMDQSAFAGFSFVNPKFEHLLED
PKC beta, sequence (P05771 whole entry): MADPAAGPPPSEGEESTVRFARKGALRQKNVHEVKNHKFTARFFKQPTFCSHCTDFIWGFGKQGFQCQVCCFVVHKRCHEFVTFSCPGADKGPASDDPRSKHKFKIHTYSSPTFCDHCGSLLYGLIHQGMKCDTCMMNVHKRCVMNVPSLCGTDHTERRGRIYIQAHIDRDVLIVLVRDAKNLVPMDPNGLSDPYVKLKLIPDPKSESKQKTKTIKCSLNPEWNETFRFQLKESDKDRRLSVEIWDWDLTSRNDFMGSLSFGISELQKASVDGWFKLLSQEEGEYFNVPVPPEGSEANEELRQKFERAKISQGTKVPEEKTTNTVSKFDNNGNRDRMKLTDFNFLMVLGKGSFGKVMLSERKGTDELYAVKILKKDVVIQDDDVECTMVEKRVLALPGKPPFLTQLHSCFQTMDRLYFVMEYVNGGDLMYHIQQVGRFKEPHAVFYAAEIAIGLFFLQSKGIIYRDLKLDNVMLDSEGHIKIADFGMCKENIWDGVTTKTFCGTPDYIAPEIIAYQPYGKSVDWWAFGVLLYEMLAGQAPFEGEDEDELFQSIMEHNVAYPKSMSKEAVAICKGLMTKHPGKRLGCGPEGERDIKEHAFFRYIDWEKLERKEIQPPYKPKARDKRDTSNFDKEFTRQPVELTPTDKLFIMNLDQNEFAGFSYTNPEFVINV

In the case of `CCCCCCCCC#Cc1ccc2c(c1)C[C@@H](CO)NC(=O)[C@H](C(C)C)N2C`, the Kd at PKCalpha [1] is 14.7 nM; on PKC beta, 17.4 nM; at PKC gamma, 40.7 nM; at PKC delta, 122 nM; at PKC epsilon it was 142 nM. For the same compound, the “antiproliferative activity against breast carcinoma” value in series [2] is “antiproliferative activity”. Besides, the “down-regulation of PKCalpha” value on PKCalpha [3] is “preferentially down-regulates PKCalpha”.
With `COc1cc2nccc(Oc3ccc(NC(=O)NC4CC4)c(Cl)c3)c2cc1C(N)=O` [Lenvatinib], the Residence time at VEGFR is given as 17 min.
